Reference: DBAASP
In brackets after ≈: the same amount, converted by molar mass.

Tests used:
Assay in all cases: ≥ marks a high value that may be exact or a test limit, other limits are often not marked, values filed in µg/mL are converted to µM
[1] = tested on: Bacillus licheniformis X39
[2] = tested on: Escherichia coli ATCC 25922
[3] = tested on: Rhodococcus rhodochrous X15
[4] = tested on: Acinetobacter baumannii 97830
[5] = tested on: Acinetobacter baumannii 9931
[6] = tested on: Acinetobacter baumannii ATCC 19606
[7] = tested on: Bacillus subtilis ATCC 23857
Escherichia coli 780 = tested on: Escherichia coli 780
Escherichia coli 804 = tested on: Escherichia coli 804
[8] = tested on: Klebsiella pneumoniae ATCC 700603
[9] = tested on: Pseudomonas aeruginosa 50
[10] = tested on: Pseudomonas aeruginosa 73
[11] = tested on: Pseudomonas aeruginosa ATCC 27853
[12] = tested on: Pseudomonas aeruginosa ATCC 9027
[13] = tested on: Staphylococcus aureus 113
Staphylococcus aureus 75 = tested on: Staphylococcus aureus 75
[14] = tested on: Staphylococcus aureus ATCC 29213
[15] = tested on: Staphylococcus epidermidis ATCC 12228
[16] = tested on: Candida albicans ATCC 10231
[17] = tested on: Cryptococcus neoformans ATCC 32045
[18] = tested on: Escherichia coli ATCC 2592
[19] = tested on: Pseudomonas aeruginosa ATCC 10145
[20] = tested on: Staphylococcus aureus ATCC 33591

Row | SMILES | MIC [4] [µM] | MIC [5] [µM] | MIC [6] [µM] | MIC [7] [µM] | MIC (Escherichia coli 780) [µM] | MIC (Escherichia coli 804) [µM] | MIC [8] [µM] | MIC [9] [µM] | MIC [10] [µM] | MIC [11] [µM] | MIC [12] [µM] | MIC [13] [µM] | MIC (Staphylococcus aureus 75) [µM] | MIC [14] [µM] | MIC [15] [µM] | MIC [16] [µM] | MIC [17] [µM] | MIC [18] [µM] | MIC [19] [µM] | MIC [20] [µM] | other results
1 | CC[C@H](C)[C@@H]1NC(=O)[C@H](CCCCN)NC(=O)[C@@H](NC(=O)[C@H](Cc2ccccc2)NC(=O)[C@H](CC(C)C)NC(=O)[C@@H](NC(=O)[C@@H]2CCCN2C(=O)[C@@H](NC(=O)[C@@H](NC(=O)[C@H](CC(N)=O)NC(=O)[C@H](C)NC(=O)[C@H](C)NC(=O)[C@@H](NC(=O)[C@H](CCCCN)NC(=O)[C@H](CC(C)C)NC(=O)[C@H](C)NC(=O)[C@@H](NC(=O)[C@H](CO)NC(=O)[C@H](CC(C)C)NC(=O)[C@@H](N)Cc2ccccc2)[C@@H](C)O)C(C)C)C(C)C)C(C)C)[C@@H](C)O)CSSC[C@@H](C(=O)O)NC(=O)[C@H](CCCCN)NC(=O)[C@H](CCCCN)NC(=O)[C@H]([C@@H](C)O)NC1=O [FLSTALKVAANVVPTLFCKITKKC] |  |  |  |  |  |  |  |  |  |  |  |  |  |  |  |  |  |  |  |  | MIC [1]: ≥ 75 µM; MIC [2]: 150 µM (≈ 389 µg/mL); MIC [3]: 9 µM (≈ 23.3 µg/mL)
2 | CC[C@H](C)[C@H](N)C(=O)N[C@@H](Cc1c[nH]c2ccccc12)C(=O)N[C@@H](CCCN=C(N)N)C(=O)N[C@@H](Cc1c[nH]c2ccccc12)C(=O)N[C@@H](Cc1c[nH]c2ccccc12)C(=O)N[C@@H](Cc1c[nH]c2ccccc12)C(=O)N[C@@H](CCCN=C(N)N)C(=O)N[C@@H](Cc1c[nH]c2ccccc12)C(=O)N[C@H](C(N)=O)[C@@H](C)CC [IWRWWWRWI] | 8 (≈ 11.9 µg/mL) | 8 (≈ 11.9 µg/mL) | 32 (≈ 47.6 µg/mL) | 4 (≈ 5.95 µg/mL) | 16 (≈ 23.8 µg/mL) | 8 (≈ 11.9 µg/mL) | 8 (≈ 11.9 µg/mL) | 16 (≈ 23.8 µg/mL) | ≥ 32 | 32 (≈ 47.6 µg/mL) | 32 (≈ 47.6 µg/mL) | 4 (≈ 5.95 µg/mL) | 8 (≈ 11.9 µg/mL) | 4 (≈ 5.95 µg/mL) | 4 (≈ 5.95 µg/mL) |  |  |  |  |  | 
3 | C[C@H](NC(=O)[C@H](Cc1ccccc1)NC(=O)[C@H](CCCCN)NC(=O)[C@H](CCCCN)NC(=O)[C@H](C)NC(=O)[C@H](Cc1ccccc1)NC(=O)[C@H](CCCCN)NC(=O)[C@H](CCCCN)NC(=O)[C@H](C)NC(=O)[C@H](Cc1ccccc1)NC(=O)[C@H](CCCCN)NC(=O)[C@H](CCCCN)NC(=O)[C@H](C)NC(=O)[C@H](Cc1ccccc1)NC(=O)[C@H](CCCCN)NC(=O)[C@H](CCCCN)NC(=O)[C@H](C)NC(=O)[C@H](Cc1ccccc1)NC(=O)[C@@H](N)CCCCN)C(=O)N[C@@H](CCCCN)C(=O)O [KFAKKFAKKFAKKFAKKFAK] |  |  |  |  |  |  |  |  |  |  |  |  |  |  |  | 44.4 (≈ 106 µg/mL) | 4.73 (≈ 11.3 µg/mL) | 9.46 (≈ 22.6 µg/mL) | 3.35 (≈ 8 µg/mL) | ≥ 105 | 
4 | NCCCC[C@H](NC(=O)[C@H](Cc1ccccc1)NC(=O)[C@H](CCCCN)NC(=O)[C@H](CCCCN)NC(=O)[C@H](Cc1ccccc1)NC(=O)[C@H](CCCCN)NC(=O)[C@H](CCCCN)NC(=O)[C@H](Cc1ccccc1)NC(=O)[C@H](CCCCN)NC(=O)[C@H](CCCCN)NC(=O)[C@H](Cc1ccccc1)NC(=O)[C@H](CCCCN)NC(=O)[C@H](CCCCN)NC(=O)[C@H](Cc1ccccc1)NC(=O)[C@H](CCCCN)NC(=O)[C@H](CCCCN)NC(=O)[C@H](Cc1ccccc1)NC(=O)[C@H](CCCCN)NC(=O)[C@H](CCCCN)NC(=O)[C@H](Cc1ccccc1)NC(=O)[C@H](CCCCN)NC(=O)[C@H](CCCCN)NC(=O)[C@H](Cc1ccccc1)NC(=O)[C@H](CCCCN)NC(=O)[C@H](CCCCN)NC(=O)[C@H](Cc1ccccc1)NC(=O)[C@@H](N)CCCCN)C(=O)O [KFKKFKKFKKFKKFKKFKKFKKFKKFK] |  |  |  |  |  |  |  |  |  |  |  |  |  |  |  | 96.9 (≈ 354 µg/mL) | 24.1 (≈ 88 µg/mL) | 6.2 (≈ 22.6 µg/mL) | ≥ 34.2 | ≥ 48.4 | 
5 | CC(C)C[C@H](NC(=O)[C@H](CCCCN)NC(=O)[C@H](CCCCN)NC(=O)[C@H](CC(C)C)NC(=O)[C@H](CC(C)C)NC(=O)[C@H](CCCCN)NC(=O)[C@H](CCCCN)NC(=O)[C@H](CC(C)C)NC(=O)[C@H](CC(C)C)NC(=O)[C@H](CCCCN)NC(=O)[C@H](CCCCN)NC(=O)[C@H](CC(C)C)NC(=O)[C@H](CC(C)C)NC(=O)[C@H](CCCCN)NC(=O)[C@H](CCCCN)NC(=O)[C@H](CC(C)C)NC(=O)[C@H](CC(C)C)NC(=O)[C@H](CCCCN)NC(=O)[C@H](CCCCN)NC(=O)[C@@H](N)CC(C)C)C(=O)O [LKKLLKKLLKKLLKKLLKKL] |  |  |  |  |  |  |  |  |  |  |  |  |  |  |  | > 206 | ≥ 36.2 | ≥ 36.2 | 25.5 (≈ 62 µg/mL) | ≥ 103 | 
6 | CC(C)[C@H](N)C(=O)N[C@@H](CCCN=C(N)N)C(=O)N[C@@H](CCCN=C(N)N)C(=O)N[C@@H](Cc1c[nH]c2ccccc12)C(=O)N[C@@H](Cc1c[nH]c2ccccc12)C(=O)N[C@@H](Cc1c[nH]c2ccccc12)C(=O)N[C@@H](CCCN=C(N)N)C(=O)N[C@@H](CCCN=C(N)N)C(=O)N[C@H](C(N)=O)C(C)C [VRRWWWRRV] | ≥ 64 | ≥ 32 | 128 (≈ 179 µg/mL) | 4 (≈ 5.59 µg/mL) | ≥ 64 | ≥ 64 | 64 (≈ 89.5 µg/mL) | ≥ 128 | ≥ 128 | 32 (≈ 44.8 µg/mL) | 32 (≈ 44.8 µg/mL) | 16 (≈ 22.4 µg/mL) | 8 (≈ 11.2 µg/mL) | 8 (≈ 11.2 µg/mL) | 4 (≈ 5.59 µg/mL) |  |  |  |  |  | 
7 | CC(C)[C@H](N)C(=O)N[C@@H](Cc1c[nH]c2ccccc12)C(=O)N[C@@H](CCCN=C(N)N)C(=O)N[C@@H](Cc1c[nH]c2ccccc12)C(=O)N[C@@H](Cc1c[nH]c2ccccc12)C(=O)N[C@@H](Cc1c[nH]c2ccccc12)C(=O)N[C@@H](CCCN=C(N)N)C(=O)N[C@@H](Cc1c[nH]c2ccccc12)C(=O)N[C@H](C(N)=O)C(C)C [VWRWWWRWV] | 4 (≈ 5.83 µg/mL) | 8 (≈ 11.7 µg/mL) | 16 (≈ 23.3 µg/mL) | 4 (≈ 5.83 µg/mL) | 4 (≈ 5.83 µg/mL) | 16 (≈ 23.3 µg/mL) | 8 (≈ 11.7 µg/mL) | ≥ 32 | ≥ 32 | 32 (≈ 46.7 µg/mL) | 32 (≈ 46.7 µg/mL) | 4 (≈ 5.83 µg/mL) | 4 (≈ 5.83 µg/mL) | 4 (≈ 5.83 µg/mL) | 4 (≈ 5.83 µg/mL) |  |  |  |  |  | 
